In US11241374B2, “Compositions and methods for treating skin conditions using light and glucosamine hydrochloride” (Johnson & Johnson Consumer Inc., priority 2018, dated 2022):
Entries after “also recorded” stand apart in the source; their conditions may differ.

System: Human dermal fibroblasts
Assay: Hyaluronic acid (HA) secretion by human dermal fibroblasts, Hyaluronan ELISA of culture media
Format: cell-based
Settings: for Synergy of active with red and/or near infrared light in hyaluronic acid production: combination of active and light versus light alone; for Fold Change versus treatment with light alone: net HA
Experimental: Human dermal fibroblasts are maintained in flask in growth medium consisting of Dulbeccos' Modified Eagle Medium (DMEM) plus 10% fetal bovine serum, 50 units/ml penicillin and 50 μg/ml streptomycin. Cells are seeded at 10,000 cells per well in a 96 well plate in phenol-red-free Dulbeccos' Modified Eagle Medium (DMEM) plus 2% fetal bovine serum, 50 units/ml penicillin and 50 μg/ml streptomycin for 24 hours before the treatments. Glucosamine HCl or other actives were dissolved in 1×PBS at 10% stock and added into the medium at various concentrations for 48 hours. Culture media is collected at 48 hours post-treatment, and measured for HA (Hyaluronic acid) secretion using Hyaluronan ELISA kit (Echelon, cat. #K-1200) following the manufacturer protocol. To assess activity, the colorimetric chance is measured at 405 nm. The net HA secretion of each tested treatment is calculated by the amount of the HA secretion from each respective individual treatment minus the amount of the HA secretion from the untreated treatment. Then, the fold increase provided by the combination of the treatments by light+active is calculated as the fold change in net HA secreted from the application of the combined light plus active treatment divided by the net HA secreted from the treatment by light alone. […]

[1] = 0.02% active alone in cell media, no light, 48 hours
[2] = Red (633 nm) + NIR (830 nm) light 0.3 J/cm^2 each + 0.02% active
[3] = Red + NIR light 0.3 J/cm^2 each + 0.02% active
[4] = Red + NIR light 0.3 J/cm^2 each + 0.2% active
[5] = Red + NIR light 3 J/cm^2 each + 0.02% active
[6] = Red + NIR light 3 J/cm^2 each + 0.2% active

| SMILES | HA concentrations [1] | Change in HA concentration over Untreated (0.02% active alone, no light) | HA concentrations [2] | Change in HA concentration over Untreated [3] | Fold Change versus treatment with light alone [3] | Synergy of active with red and/or near infrared light in hyaluronic acid production | also measured |
| --- | --- | --- | --- | --- | --- | --- | --- |
| Cl.N[C@H]1C(O)O[C@H](CO)[C@@H](O)[C@@H]1O (some centres unmarked) [Glucosamine HCl, glucosamine hydrochloride] | 543 ng/mL | -8 ng/mL | 2489 ng/mL | +1938 ng/ml | 2.25 | – | HA concentrations (0.2% active alone in cell media, no light, 48 hours): 999 ng/mL; Change in HA concentration over Untreated (0.2% active alone, no light): +448 ng/ml; HA concentrations (Red (633 nm) + NIR (830 nm) light 0.3 J/cm^2 each + 0.2% active): 2260 ng/mL; HA concentrations (Red (633 nm) + NIR (830 nm) light 3 J/cm^2 each + 0.02% active): 4379 ng/mL; HA concentrations (Red (633 nm) + NIR (830 nm) light 3 J/cm^2 each + 0.2% active): 3873 ng/mL; Change in HA concentration over Untreated [4]: +1709 ng/ml; Change in HA concentration over Untreated [5]: +3828 ng/ml; Change in HA concentration over Untreated [6]: +3322 ng/ml; Synergy of active with red and/or near infrared light in hyaluronic acid production (listed as glucosamine HCl, hydrochloride): synergistically increased the hyaluronic acid secretion; Synergy of active with red and/or near infrared light in hyaluronic acid production (listed as glucosamine hydrochloride, hydrochloride): synergistically increases hyaluronic acid production; Fold Change versus treatment with light alone [4]: 1.98; Fold Change versus treatment with light alone [5]: 2.99; Fold Change versus treatment with light alone [6]: 2.60 |
| N[C@H]1C(O)O[C@H](CO)[C@@H](O)[C@@H]1O.O=P(O)(O)O (some centres unmarked) [Glucosamine phosphate, reference compound] | 689 ng/mL | -51 ng/mL | 1037 ng/mL | 297 ng/mL | 0.36 | – | Synergy of active with red and/or near infrared light in hyaluronic acid production (listed as glucosamine phosphate, phosphate): not observed; Synergy of active with red and/or near infrared light in hyaluronic acid production (phosphate): No synergy was observed |
| CC(=O)N[C@H]1C(O)O[C@H](CO)[C@@H](O)[C@@H]1O (some centres unmarked) [N-acetyl Glucosamine, N-acetyl glucosamine, reference compound] | 735 ng/mL | -125 ng/mL | 1878 ng/mL | 1018 ng/mL | 1.1 | No synergy was observed; also recorded: not observed | – |
| N[C@H]1C(O)O[C@H](CO)[C@@H](O)[C@@H]1O (some centres unmarked) [glucosamine] | – | – | – | – | – | not observed | – |
